The results in this text go back to EPA's ToxValDB 9.5 (doi:10.2903/j.efsa.2009.1348).

Converted amounts (≈) assume the structure as drawn.

One data set has as its system Oryctolagus sp. The note with it: reproduction developmental; reproduction.
The test system of a further data set is Canidae. The note with it: chronic; duration: 1 years; oral; Dog Other; organ weight.
Another data set relates to Bibionidae. As to conditions: chronic/long-term; duration: 28 days.
The subject of another data set is Daphnia magna. The note with it: chronic/long-term; duration: 21 days; reproduction.
The subject of another data set is Bird. The note with it: for LD50: acute, unspecified.
For data set [1] the following is noted: chronic/long-term.
The subject of the next data set is Apis mellifera. The note with it: acute; duration: 48 hours; oral; unspecified; mortality.
For the next data set, the system named is Lepomis macrochirus. The note with it: acute; duration: 96 hours; mortality.
A further data set relates to Oncorhynchus mykiss. The note with it: chronic/long-term; duration: 28 days.

Broadly, the NOAEL is the highest dose or exposure tested at which no adverse effect was seen. With `C[C@@H](Oc1ccc(Oc2ncc(C(F)(F)F)cc2Cl)cc1)C(=O)O` [Haloxyfop-P], the LD50 in the data set on Rattus norvegicus (acute, oral, mortality) is 300 mg/kg; in the data set on Bird (oral, mortality), 414 mg/kg; in the data set on Apis mellifera, greater than 100 µg/piece. The NOAEL worked out at 0.065 mg/kg-day in the data set on Rattus norvegicus (chronic, duration: 2 years, organ weight); 0.065 mg/kg-day with Rattus norvegicus (reproduction developmental, body weight); 7.5 mg/kg-day with Oryctolagus sp.; 0.5 mg/kg-day in the data set on Canidae; 1 mg/kg-day in [1]. Besides, the LEL came out at 5.7 g/ha in the data set with Aphidius rhopalosiphi (chronic/long-term, reproduction) and 108 g/ha with Aphidius rhopalosiphi (not reported, mortality). For the same molecule, the LC50 is 830 mg/kg in the data set with Tagia sp. (acute, mortality); greater than 1110 mg/kg-day in the data set on Bird (short-term, oral, feed, mortality); 0.0884 µg/mL (≈ 0.244 µM) in the data set on Lepomis macrochirus. The NOEC is 810 g/ha with Tagia sp. (chronic/long-term), 2.5 mg/L with Bibionidae, 0.509 mg/L with Daphnia magna and 17.1 mg/kg-day with Bird (reproductive).

`COC(=O)[C@@H](C)Oc1ccc(Oc2ncc(C(F)(F)F)cc2Cl)cc1` [Haloxyfop-P-methyl] gave an LD50 with Bird (oral, mortality) of 1160 mg/kg-day. Also, in the data set on Oncorhynchus mykiss, the NOEC turned out to be 0.0052 mg/L.
